Assay results published in ChEMBL document CHEMBL1201862, “PubChem BioAssay data set” (2004).
Active and inactive are the calls of the source.

How the values were obtained:
[1] = biological target: T1, SUMO-activating enzyme (Homo sapiens, UniProt Q9UBT2); experiment: blockers of UBC9-mediated SUMO conjugation – biochemical, AlphaScreen, SUMOylation inhibitor project, confirmation (AID 2018); type: functional
[2] = biological target: T1, SUMO-activating enzyme; experiment: blockers of SAE1/SAE2–UBC9 SUMO transfer – biochemical, HTRF, uHTS, primary screen (AID 2006); type: protein-complex assay
[3] = biological target: Genome polyprotein (dengue virus type 2, UniProt P29990); experiment: flavivirus cap methylation enzyme inhibition – biochemical, confirmation dose response, primary screen (AID 588689); type: functional
Genome polyprotein (dengue virus type 2, UniProt P29990), sequence (P29990 2492-3391 limits assumed): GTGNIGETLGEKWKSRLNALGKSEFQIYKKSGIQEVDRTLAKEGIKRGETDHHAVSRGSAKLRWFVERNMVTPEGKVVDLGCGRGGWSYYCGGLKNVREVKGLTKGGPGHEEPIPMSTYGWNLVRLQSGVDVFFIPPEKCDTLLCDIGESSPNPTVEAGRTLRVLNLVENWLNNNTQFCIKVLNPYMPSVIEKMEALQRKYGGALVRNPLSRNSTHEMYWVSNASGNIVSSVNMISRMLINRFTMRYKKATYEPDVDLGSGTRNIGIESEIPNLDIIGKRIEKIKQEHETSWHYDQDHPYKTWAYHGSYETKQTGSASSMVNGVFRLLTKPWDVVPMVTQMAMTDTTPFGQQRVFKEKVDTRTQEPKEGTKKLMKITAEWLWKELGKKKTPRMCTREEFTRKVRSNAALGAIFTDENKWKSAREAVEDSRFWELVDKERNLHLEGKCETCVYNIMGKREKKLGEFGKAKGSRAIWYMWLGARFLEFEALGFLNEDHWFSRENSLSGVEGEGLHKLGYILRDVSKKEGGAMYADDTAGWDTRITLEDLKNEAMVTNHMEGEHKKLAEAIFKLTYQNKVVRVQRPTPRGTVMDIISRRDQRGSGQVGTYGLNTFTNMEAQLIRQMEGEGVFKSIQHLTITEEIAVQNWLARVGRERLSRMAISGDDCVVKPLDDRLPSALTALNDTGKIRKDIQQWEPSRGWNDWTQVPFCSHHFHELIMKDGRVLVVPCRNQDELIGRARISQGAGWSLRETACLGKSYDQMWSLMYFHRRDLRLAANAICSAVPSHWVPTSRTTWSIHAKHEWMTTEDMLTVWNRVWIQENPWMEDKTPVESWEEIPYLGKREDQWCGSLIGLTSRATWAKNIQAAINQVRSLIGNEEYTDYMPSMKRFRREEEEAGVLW

[4] = biological target: Genome polyprotein (Hepatitis C virus, UniProt Q2Q167); experiment: disruption of hepatitis C core self-association – biochemical, TR-FRET, dose response (AID 2159); design: species or system Hepacivirus hominis;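 note: blocks dimerization of HCV core protein measured by TR-FRET between tagged core106 pairs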
Genome polyprotein (Hepatitis C virus, UniProt Q2Q167), sequence (Q2Q167 whole entry): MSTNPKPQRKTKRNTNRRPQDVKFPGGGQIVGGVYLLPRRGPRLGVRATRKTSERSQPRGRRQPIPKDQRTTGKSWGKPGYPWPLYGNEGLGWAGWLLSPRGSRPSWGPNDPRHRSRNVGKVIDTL

[5] = biological target: T2, Streptokinase A (Streptococcus pyogenes serotype M1, UniProt P10520); experiment: viability-normalized secreted streptokinase activity reduction – plasminogen activation absorbance, OD405, dose response (AID 1914); type: functional, Streptococcus pyogenes M1 GAS;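 note: secreted streptokinase activity via plasminogen activation per viability signal from cell pellet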
T2 sequence (P10520 whole entry): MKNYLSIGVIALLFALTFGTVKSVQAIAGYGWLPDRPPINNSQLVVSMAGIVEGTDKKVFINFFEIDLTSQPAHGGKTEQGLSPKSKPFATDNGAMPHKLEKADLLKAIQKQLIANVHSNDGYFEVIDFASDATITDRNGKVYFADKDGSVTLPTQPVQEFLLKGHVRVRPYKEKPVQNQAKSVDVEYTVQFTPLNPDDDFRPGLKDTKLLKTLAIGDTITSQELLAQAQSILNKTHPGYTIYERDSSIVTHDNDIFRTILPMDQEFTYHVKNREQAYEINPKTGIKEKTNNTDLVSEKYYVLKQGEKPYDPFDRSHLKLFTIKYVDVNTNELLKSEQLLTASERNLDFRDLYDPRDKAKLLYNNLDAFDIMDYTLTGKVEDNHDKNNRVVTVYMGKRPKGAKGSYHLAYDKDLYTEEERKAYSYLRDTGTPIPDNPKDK

[6] = tested on: Streptococcus sp. 'group A'; experiment: Streptococcus pyogenes SK(-)GAS viability under kanamycin – luminescence, BacTiterGlo, confirmation, counter-screen for streptokinase expression inhibitor project, dose response (AID 1900); type: functional, organism-based
[7] = tested on: Streptococcus; experiment: GAS UMAA2166 growth inhibition – luminescence, BacTiterGlo, counter-screen for streptokinase expression inhibitor project, dose response (AID 1915); type: functional, organism-based;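 note: potency for reduction of bacterial viability or growth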
[8] = biological target: Heat shock protein HSP 90-alpha (Homo sapiens, UniProt P07900); experiment: Luminescence-based dose response biochemical high throughput screening assay for inhibitors of the Heat Shock Protein 90 (HSP90). [Related pubchem assays: 1831 (Summary AID.), 1846 (Confirmation screen.), 1789 (Primary screen.)]
[9] = biological target: DNA dC->dU-editing enzyme APOBEC-3A (Homo sapiens, UniProt P31941); experiment: Dose Response confirmation of small molecule APOBEC3A DNA Deaminase Inhibitors via a fluorescence-based single-stranded DNA deaminase assay. [Related pubchem assays (depositor defined):AID493011, AID493024]; type: functional
DNA dC->dU-editing enzyme APOBEC-3A, sequence (P31941 whole entry): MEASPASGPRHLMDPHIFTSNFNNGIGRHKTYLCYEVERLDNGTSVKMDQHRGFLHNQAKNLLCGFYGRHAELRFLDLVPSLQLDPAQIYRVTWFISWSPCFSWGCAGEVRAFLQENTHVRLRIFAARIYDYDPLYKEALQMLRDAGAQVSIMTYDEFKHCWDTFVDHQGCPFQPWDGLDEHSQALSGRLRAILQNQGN

[10] = biological target: T3, Estrogen receptor beta (Homo sapiens, UniProt Q92731); experiment: blockers of SRC-3 recruitment to ERβ – biochemical, ELISA, streptavidin-HRP readout, orthogonal assay, confirmation (AID 1060)
T3 sequence (Q92731 whole entry): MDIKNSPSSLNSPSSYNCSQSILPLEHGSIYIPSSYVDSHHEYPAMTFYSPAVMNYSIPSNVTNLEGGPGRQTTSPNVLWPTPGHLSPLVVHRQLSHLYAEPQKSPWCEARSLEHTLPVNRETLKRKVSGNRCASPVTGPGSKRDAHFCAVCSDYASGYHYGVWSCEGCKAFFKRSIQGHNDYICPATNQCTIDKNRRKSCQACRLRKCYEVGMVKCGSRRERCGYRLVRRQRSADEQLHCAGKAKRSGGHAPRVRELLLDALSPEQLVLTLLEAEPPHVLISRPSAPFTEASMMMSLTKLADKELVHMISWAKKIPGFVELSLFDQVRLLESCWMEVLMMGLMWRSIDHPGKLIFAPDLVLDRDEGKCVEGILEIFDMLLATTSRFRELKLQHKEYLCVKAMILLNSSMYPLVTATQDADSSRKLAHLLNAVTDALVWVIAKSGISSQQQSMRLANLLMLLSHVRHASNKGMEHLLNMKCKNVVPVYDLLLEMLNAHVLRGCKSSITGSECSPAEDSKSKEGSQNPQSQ

[11] = biological target: T3, Estrogen receptor beta
[12] = biological target: DNA dC->dU-editing enzyme APOBEC-3G (Homo sapiens, UniProt Q9HC16); type: functional;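 note: Dose-response counterscreen measuring inhibition of APOBEC3G DNA deaminase activity, run while confirming APOBEC3A inhibitors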
DNA dC->dU-editing enzyme APOBEC-3G, sequence (Q9HC16 whole entry): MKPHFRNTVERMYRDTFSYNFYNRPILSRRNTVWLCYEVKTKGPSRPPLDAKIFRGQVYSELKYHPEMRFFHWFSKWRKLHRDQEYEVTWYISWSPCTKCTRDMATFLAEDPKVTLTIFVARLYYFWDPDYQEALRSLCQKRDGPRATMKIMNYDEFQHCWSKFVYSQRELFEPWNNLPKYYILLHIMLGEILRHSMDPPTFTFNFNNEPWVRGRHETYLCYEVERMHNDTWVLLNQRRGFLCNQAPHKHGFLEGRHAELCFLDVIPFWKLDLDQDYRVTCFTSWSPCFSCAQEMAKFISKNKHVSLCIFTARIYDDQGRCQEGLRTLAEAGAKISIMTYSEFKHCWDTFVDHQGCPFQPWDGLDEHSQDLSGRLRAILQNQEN

T1 sequence (Q9UBE0 whole entry): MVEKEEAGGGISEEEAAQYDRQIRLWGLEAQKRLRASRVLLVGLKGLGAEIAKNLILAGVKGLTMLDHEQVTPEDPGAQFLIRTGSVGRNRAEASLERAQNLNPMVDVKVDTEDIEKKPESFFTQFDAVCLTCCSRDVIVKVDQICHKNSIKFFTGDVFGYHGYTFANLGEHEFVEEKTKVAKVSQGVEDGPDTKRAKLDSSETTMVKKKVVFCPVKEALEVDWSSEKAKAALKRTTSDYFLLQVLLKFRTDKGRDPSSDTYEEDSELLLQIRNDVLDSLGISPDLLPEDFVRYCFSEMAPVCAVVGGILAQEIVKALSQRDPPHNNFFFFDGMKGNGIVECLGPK
T1 sequence (Q9UBT2 whole entry): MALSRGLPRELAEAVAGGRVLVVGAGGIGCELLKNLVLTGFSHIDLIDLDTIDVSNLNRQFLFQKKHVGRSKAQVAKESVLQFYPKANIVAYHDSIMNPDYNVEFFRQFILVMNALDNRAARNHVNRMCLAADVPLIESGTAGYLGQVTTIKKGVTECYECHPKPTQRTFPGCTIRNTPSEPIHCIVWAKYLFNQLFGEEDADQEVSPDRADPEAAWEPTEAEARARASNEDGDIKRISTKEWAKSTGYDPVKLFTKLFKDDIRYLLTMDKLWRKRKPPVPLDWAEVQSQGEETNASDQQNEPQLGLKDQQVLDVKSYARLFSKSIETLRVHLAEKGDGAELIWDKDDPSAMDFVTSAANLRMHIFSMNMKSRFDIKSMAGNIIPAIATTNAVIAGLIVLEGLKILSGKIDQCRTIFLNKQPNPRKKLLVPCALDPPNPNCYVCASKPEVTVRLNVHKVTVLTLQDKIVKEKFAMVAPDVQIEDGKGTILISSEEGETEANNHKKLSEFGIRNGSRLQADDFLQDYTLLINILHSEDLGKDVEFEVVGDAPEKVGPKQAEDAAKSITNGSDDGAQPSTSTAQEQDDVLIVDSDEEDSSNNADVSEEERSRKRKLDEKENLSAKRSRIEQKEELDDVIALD

Q: What does the source list for COc1cc(/C=C2\C(=O)N(c3ccccc3)N=C2C)ccc1Oc1ccc([N+](=O)[O-])cc1[N+](=O)[O-]?
A: IC50 [1]: 5.91 µM (active); IC50 [2]: 24.5 µM (active); IC50 [3]: 58 µM (active); IC50 [4]: > 49.8 µM (not active)

Q: Which EC50 [5] does the source give for CCOC(=O)c1csc(NC(=O)c2ccc3c(c2)OCCO3)n1 here?
A: > 150 µM (not active)

Q: What about the EC50 [6] of the same compound?
A: > 150 µM (not active)

Q: What about the EC50 [7] of the same compound?
A: > 150 µM (not active)

Q: What about the IC50 [8] of the same compound?
A: 1.23 µM (active)

Q: Which IC50 [9] does the source give for O=C(Cc1cccs1)Nc1nnc(Cc2ccccc2)s1 here?
A: 12 µM (active)

Q: And the IC50 [10]?
A: 14.4 µM (not active)

Q: What about the IC50 [11] of the same compound?
A: 1.7 µM (active)

Q: What about the IC50 [12] of the same compound?
A: 25.3 µM (active)
